For series [1], the target named is T1, purified resistance-associated esterase (E4) (Myzus persicae, UniProt P35501).
T1 construct: 5 g of aphids (stored at −20° C.) were homogenised in 0.02 M phosphate buffer pH 7.0; from tissue; host or cells: whole Myzus persicae aphids, clone 794JZ; homogenate purified over G-25 and DEAE Sepharose Fast Flow
T1 sequence (P35501 24-552): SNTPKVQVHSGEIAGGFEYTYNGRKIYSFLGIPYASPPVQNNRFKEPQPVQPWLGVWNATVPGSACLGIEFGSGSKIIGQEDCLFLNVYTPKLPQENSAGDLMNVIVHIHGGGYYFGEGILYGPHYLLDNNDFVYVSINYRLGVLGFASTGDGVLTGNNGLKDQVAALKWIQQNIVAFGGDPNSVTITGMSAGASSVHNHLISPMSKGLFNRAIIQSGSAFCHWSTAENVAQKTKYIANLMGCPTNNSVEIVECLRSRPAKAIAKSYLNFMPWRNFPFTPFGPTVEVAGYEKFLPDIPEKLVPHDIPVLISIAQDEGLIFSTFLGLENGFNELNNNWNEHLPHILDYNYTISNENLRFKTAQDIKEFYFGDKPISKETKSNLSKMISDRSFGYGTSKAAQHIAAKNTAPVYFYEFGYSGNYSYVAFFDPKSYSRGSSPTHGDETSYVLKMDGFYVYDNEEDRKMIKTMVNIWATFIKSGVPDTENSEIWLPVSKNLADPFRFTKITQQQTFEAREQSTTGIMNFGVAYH
Kind of series: Esterase interference assay (indirect determination of esterase inhibition). As to conditions: for Esterase protection (%) after pre-incubation with compound: no esterase = 0%, uninhibited E4 = 100%; for Reduction of esterase protection, comparison in words: E4 esterase interference assay, Examples 13 and 16. It counts as biochemical. An excerpt:
Measuring the in vitro inhibition is not straight forward, as synergists may bind to a site other than the active site.
The esterase used was the well-characterised resistance associated esterase purified from M. persicae, E4, (aphid clone: 794JZ) as per Devonshire (1977) with some modifications(Devonshire A L, The properties of a carboxylesterase from the peach-potato aphid, Myzus persicae (Sulz.) and its role in conferring insecticide resistance. Biochem J 167: 675-683 (1977)). Briefly, 5 g of aphids (stored at −20° C.) were homogenised in 0.02 M phosphate buffer pH 7.0 and centrifuged at 20 000 g for 10 min. The supernatant was passed through a G-25 column using 0.02M Tris/HCl, pH 8.5 buffer. Unretarded fractions containing esterase activity were further chromatographed through DEAF Sepharose Fast Flow (Amersham Biosciences) and eluted with a linear 0-0.35 M NaCl gradient in 500 ml of Tris/HCl as above. Fractions containing carboxylesterase activity in the form of E4 were concentrated, desalted, and buffer exchanged to 0.02 M phosphate pH 7.0 for storage.
Interactions of the purified resistance-associated esterase (E4) with Compound of Example 2, Compound of Example 3, Compound of Example 4, Compound of Example 9 and Compound of Example 11 were performed using the ‘esterase interference assay’, as described by Khot et al., with some modifications. Devonshire A L, The properties of a carboxylesterase from the peach-potato aphid, Myzus persicae (Sulz.) and its role in conferring insecticide resistance. Biochem J 167: 675-683 (1977)). Briefly, stock solutions of novel synergists (3 mM in acetone) were pre-incubated with pure E4, to give a final concentration of 0.03 mM, for 16 h at 4° C. Aliquots (15 μl ) of E4, E4+Compound of Example 2, E4+Compound of Example 3, E4+Compound of Example 4, E4+Compound of Example 9 and E4+Compound of Example 11 were incubated for 1 h with 60 μl of serial dilutions of azamethiphos in 0.02M phosphate buffer, pH 7, in separate wells of a NUNC microplate. Aliquots (25 p1) of house fly head homogenate (source of AChE) were added to each well and incubated for 15 minutes at room temperature. E4 in acetone and buffer only served as the positive and the negative controls respectively. AChE activity was measured at 405 nm using a Tmax kinetic microplate reader (Molecular Devices, Menlo Park, Calif.). Readings were taken automatically for 10 min at 10 s intervals. The rate (mOD min^−1) was calculated by the integrated software, Softmax Pro 4.6. All treatments were performed in triplicate.
No added esterase is giving 0% esterase protection and uninhibited esterase (E4) is giving 100% protection.
The materials and procedure as stated in Example 13, paragraphs 13.1, 13.1.2, 13.1.2.1 and 13.1.2.2. have been used and the following results have been obtained: […]

In the next series the test system is Myzus persicae. Nature of the series: Topical application bioassay on aphid clones: imidacloprid with or without synergist pre-treatment. As to conditions: for RF, resistance factor (LC50 resistant / LC50 susceptible population): imidacloprid; for LC50 (lethal concentration of imidacloprid to kill 50% of the population): imidacloprid alone, topical, scored 72 h. How it is done: Aphid clones were reared on Chinese cabbage (Brassica rapa L. var. Pekinensis c.v Wong Bok) (Brassicaceae) leaves held in small plastic box-cages maintained at 18±2° C. with a 16:8 h light:dark photoperiod (Blackman R L, Variation in the photoperiodic response within natural populations of Myzus persicae (Sulzer). Bull Ent Res 60: 533-546 (1971)).
Clone 4106A is a laboratory insecticide-susceptible standard2 . […] Both aphid clones have been established from single parthenogenetic M. persicae females (Foster S P, Denholm I, Thompson R, Poppy G M, Powell W, Reduced response of insecticide-resistant aphids and attraction of parasitoids to alarm pheromone; a potential fitness trade-off. Bull Ent Res 95: 37-46 (2005)).
12.1.2 Topical Application Bioassay with 5191A Aphid Clone Young apterae were transferred to the abaxial surface of Chinese cabbage leaf discs (10 adults per leaf disc, at least 3 replicates per concentration) held on 1% agar in plastic containers (4 cm in diameter). The upper edge of each container was coated with Fluon (Whitford Plastics, UK) to prevent subsequent aphid escape from the leaf surface. After allowing 2 h for the aphids to settle, each was dosed with 0.25 μl of either 1 g L^−1 Compound of Example 3 dissolved in acetone or acetone only. After 4 h aphids were further treated with 0.25 μl imidacloprid in acetone (96% AR) using a
Burkard microapplicator (Burkard, Rickmansworth, UK). Controls were treated with acetone only. Treated aphids were stored at 18±2° C. and 16 h light: 8 h dark photoperiod. All bioassays were scored at the endpoint of 72 h after treatment. Adults incapable of co-ordinated movement (after gentle touching with a paint brush if necessary) were scored as dead. All bioassays were completed in triplicate.

In series [2] the test system is pollen beetle, Meligethes aeneus. Kind of series: Full dose response bioassay (α-cypermethrin), coated glass vials, IRAC method no 11. It counts as in vivo. As to conditions: for LC50 (lethal concentration of α-cypermethrin to kill 50% of the population): 24 h. How it is done: (§1) Two pyrethroid resistant populations originating from two different areas in Poland ‘Rogalin'and lebork’ were collected in July 2008. A putative susceptible population, UK population, was also collected in July 2008 in Hertfordshire, UK. All populations were collected from oilseed rape contained adults only and were kept at room temperature before assays were performed.
To characterise the response of the 3 above pollen beetle populations against α-cypermethrin full dose response bioassays were carried out. The bioassay method used was based on the method recommended by the Insecticide Resistance Action Committee (IRAC method no 11). Briefly, glass vials (5.7 cm height and 2.3 cm diameter) were coated with 0.5 ml of a serial dilutions of insecticide, dissolved in acetone, (α-cypermethrin) and rolled upon a blood-roller (Luckham Multimix Major, Denley Instruments Ltd) at room temperature until the solutions had completely evaporated. Five to 20 non-sexed adult pollen beetles were placed into a vial for each replicate and the top loosely closed with a screw-cap. Three replicates were used at each insecticide concentration, 7 concentrations in all. Vials treated with acetone only were used as controls.
(§2) Treated vials including the pollen beetles were stored in constant environment facilities at 18±2° C. and 16L: 8D. All bioassays were scored at an endpoint of 24 h after exposure to the insecticide. Insects incapable of coordinated movement (after gentle touching with a pencil brush if necessary) were scored as dead.

The test system is the same in series [3]. Nature of the series: Discriminating dose bioassay: α-cypermethrin in mixture with synergist. It counts as in vivo. As to conditions: Brassicogethes aeneus; for mortality at 0.3 ppm: 0.3 ppm α-cypermethrin alone. How it is done:
as §1
Bioassays incorporating the compounds (Compound of Example 2 and Compound of Example 3) dissolved in acetone, were carried out using a diagnostic concentration of α-cypermethrin derived from the above full dose response bioassays in a mixture of 0.01 g L^−1 of the compounds. The concentration of α-cypermethrin used for the discriminating dose bioassays was 0.3 ppm α-cypermethrin for the two polish populations, Rogalin and Lebork and 0.03 ppm α-cypermethrin for UK population. Vials treated with the compounds only, dissolved in acetone and acetone only were used as controls. Ten to 15 replicates were used for each treatment depending on insect numbers within the population. Compounds concentrations chosen conferred no mortality in preliminary bioassays.
as §2

Where [4] appears, read: Table 2 (Example 13), 0.03 mM compound pre-incubated with E4 16 h at 4° C.
[5] abbreviates: second 'TABLE 3' (Example 16), procedure as Example 13.

Where “and” joins values, the source holds several entries; their conditions need not be identical. Equal values may be shown once.

For the compound `CC#CCOc1cc2c(cc1COCCOCCOCCCC)OCO2` [Example 9, 5-[2-(2-butoxyethoxy)-ethoxy]methyl-6-(but-2-ynyloxy)-benzo[1.3]dioxole], in series [1] (setting [4]), the “Esterase protection (%) after pre-incubation with compound” value (“Esterase protection (%)” below) was found to be 2.96%.

As to `C#CCOc1cc2c(cc1CCC)OCO2` [Example 4, 5-(propargyloxy)-6-propyl-benzo[1.3]dioxole], the “Reduction of esterase protection, comparison in words” value in series [1] was “worse activity than the compound of Example 3”. In addition, the “Esterase protection (%)” value in series [1] (setting [4]) and in series [1] (setting [5]) was 2.06% throughout.

With `O=[N+]([O-])NC1=NCCN1Cc1ccc(Cl)nc1` [imidacloprid], the “RF, resistance factor (LC50 resistant / LC50 susceptible population)” value in the series with Myzus persicae (aphid clone 4106A (susceptible reference)) turned out to be 1; in the series with Myzus persicae (aphid clone 5191A versus 4106A), 56.5. For the same compound, the “LC50 (lethal concentration of imidacloprid to kill 50% of the population)” value amounted to 1.6 ppm in the series on Myzus persicae (aphid clone 4106A (susceptible, S)) and 90.5 ppm with Myzus persicae (aphid clone 5191A, FE4(R3) resistant).

As to `CC#CCOc1cc2c(cc1CCC)CCO2` [Example 11, 6-(but-2-ynyloxy)-5-propyl-2,3-dihydrobenzofuran], the “Esterase protection (%)” value in series [1] (setting [4]) is −1.17%.

Consider `C#CCOc1ccc2c(c1)OCO2` [Example 1, 5-(propargyloxy)-benzo[1,3]dioxole, reference compound], for which the entries for the “Esterase protection (%)” value in series [1] (setting [4]) and in series [1] (setting [5]) were 63.9% and 63.90%, respectively.

For the compound `CC1(C)C(C=C(Cl)Cl)C1C(=O)OC(C#N)c1cccc(Oc2ccccc2)c1` (stereo not drawn) [α-cypermethrin], the “LC50 (lethal concentration of α-cypermethrin to kill 50% of the population)” value is given as 95.0 ηg/cm^2 in series [2] (Lebork population (pyrethroid resistant, Poland)); 65.0 ηg/cm^2 in series [2] (Rogalin population (pyrethroid resistant, Poland)); 2.80 ηg/cm^2 in series [2] (UK population (putative susceptible)). Besides, the “RF, resistance factor (LC50 resistant / LC50 susceptible population)” value in series [2] (Lebork versus UK population) is 44; in series [2] (Rogalin versus UK population), 23 and 23.21; in series [2] (UK population (reference)), 1. Moreover, the mortality (usually the share of the test organisms that died) at 0.3 ppm in series [3] (24 h, Lebork) was 4.9%; in series [3] (24 h, Rogalin), 2.78%; in series [3] (Rogalin and Lebork) it was roughly 5%. In addition, the mortality at 0.03 ppm in series [3] (24 h, UK population, 0.03 ppm α-cypermethrin alone) turned out to be 13.6%.

With `C#CCOc1cc(OC)c(OC)cc1CCC` [Example 7, 1-(propargyloxy)-6-propyl-3,4-dimethoxybenzene], in series [1] (setting [5]), the “Esterase protection (%)” value amounted to 15.17%.

With `CC#CCOc1cc(OC)c(OC)cc1CCC` [Example 8, 1-(but-2-ynyloxy)-6-propyl-3,4-dimethoxybenzene], in series [1], the “Reduction of esterase protection, comparison in words” value is listed as “better activity than compounds 4, 7, respectively”. The “Esterase protection (%)” value in series [1] (setting [5]) was found to be 5.09%.

Values taken from patent US8809389B2, “Substituted alkynyl phenoxy compounds as new synergists in pesticidal compositions” (Endura S.p.A., priority 2009, dated 2014).
